Measured values reported in patent publication US9175906B2, “Drug particles from freezing onto a surface” (BOARD OF REGENTS, THE UNIVERSITY OF TEXAS SYSTEM, priority 2003, dated 2015).
Several values for one entry are separate records, joined by “and”; a condition that tells them apart may be missing. Identical values can stand only once.

What was measured:
[1] = USP Dissolution Apparatus Method 2 (in vitro dissolution); assay type: physicochemical; conditions: 37° C.
Description: (§1) • Particle Size Analysis. […] Dissolution obtained using the following method is also referred to herein as “in vitro dissolution”. The dissolution media used varied with the drug substance, and is specified below. The dissolution media was heated to 37° C. and degassed. Dissolution was performed utilizing three vessels per experiment. 11 to 12 mg of drug particles prepared according to the present invention was added to each vessel for dissolution analysis. Dissolution samples were filtered automatically into test tubes containing 0.1 mL of acetonitrile, mixed with a vortex mixer, filtered and analyzed by HPLC. Samples were taken at 2, 5, 10, 15, 20, 30, 60, and 120 minutes. At the 60 min. point the agitation speed was increased to 200 rpm to ensures complete dissolution by 120 minutes. The 120 min. reading is the infinity time reading and the infinity time is used to calculate the potency. […] Crystallinity was determined by X-ray diffraction methods using a Bruker D-8 automated diffractometer. • Atmospheric Freeze Drying (ATMFD). ATMFD was one method of solvent removal used in the following examples. Heat transfer fluid was circulated through the circulating jacket of the heat exchanger, that was used to cool the drying gas then to the jacket of the ATMFD unit. Chilled nitrogen gas is flowed through the bottom of the ATMFD unit to sublime the solvent(s) away from the drug (s) and fluidizing the solids. The ATMFD unit and the nitrogen gas temperature are slowly warmed to ambient temperature. After the ATMFD portion of the process was complete the solid was collected from either the cyclone or the ATMFD Unit. • Freeze Drying. Freeze drying was an alternative solvent removal method used in some of the following examples. The frozen solution that was prepared was transferred to ajar cooled with dry ice. The processed solid in the chilled container was placed on a Virtis freeze dryer and dried for app. 12-24 hr at approximately 100 mtorr vacuum.

[2] = Particle size analysis (Beckman Coulter Counter) after redispersion in water; assay type: physicochemical; conditions: bulk drug powder as received, redispersed in water
Description: as §1

[3] = deionized water containing 10.0 wt. % sodium chloride

| PSA of bulk drug [2] | SMILES | also measured |
| --- | --- | --- |
| 391.4 microns | NC(=O)N1c2ccccc2C=Cc2ccccc21 [Carbamazepine] | Dissolution of bulk drug after 2 minutes ([1]; deionized water containing 5.0 wt. % sodium chloride): 4.83 wt % |
| 24.86 microns | C#C[C@]1(O)CC[C@H]2[C@@H]3CCC4=Cc5oncc5C[C@]4(C)[C@H]3CC[C@@]21C [Danazol] | Dissolution of bulk drug after 2 minutes ([1]; deionized water, 0.75 wt. % SLS, 1.21 wt. % Tris, pH 9): 56.42 wt % |
| 17.07 microns | CC(=O)OCC(=O)[C@@]1(O)CC[C@H]2[C@@H]3CCC4=CC(=O)CC[C@]4(C)[C@H]3[C@@H](O)C[C@@]21C [Hydrocortisone Acetate] | Dissolution of bulk drug after 2 minutes ([1]; deionized water containing 0.3 wt. % SDS): 21.16 wt % |
| 13.5 microns and 13.50 microns | CC(=O)N1CCN(c2ccc(OCC3COC(Cn4ccnc4)(c4ccc(Cl)cc4Cl)O3)cc2)CC1 (stereo not shown) [Ketoconazole] | Dissolution of bulk drug after 2 minutes ([1]; deionized water containing 0.5 wt. % SLS): 26.1 wt % and 26.10 wt % |
| 42.73 microns | CC(C(=O)O)c1cccc(C(=O)c2ccccc2)c1 (stereo not shown) [Ketoprofen] | – |
| 3.263 microns | C[C@]12C=CC(=O)C=C1CC[C@@H]1[C@@H]2C(=O)C[C@@]2(C)[C@H]1CC[C@]2(O)C(=O)CO [Prednisone] | Dissolution of bulk drug after 2 minutes [1, 3]: 0.97 wt % |
| 7.707 microns | CC1(C)O[C@@H]2C[C@H]3[C@@H]4CCC5=CC(=O)C=C[C@]5(C)[C@@]4(F)[C@@H](O)C[C@]3(C)[C@]2(C(=O)CO)O1 [Triamcinalone Acetonide] | Dissolution of bulk drug after 2 minutes [1, 3]: 5.38 wt % |
